In US11247966B2, “4-(p-trifluoromethylbenzyl)-3-fluoro-1,2,4-triphenylamine derivative and pharmaceutical composition and applications thereof” (HEBEI MEDICAL UNIVERSITY, priority 2018, dated 2022):
Like-named read-outs stand apart in the source and are kept apart here.

How the values were obtained:
[1] = target: KCNQ2/3 channels (Homo sapiens, UniProt O43525+O43526); assay: High-throughput determination of Rb+ efflux by atomic absorption spectrometry; format: cell-based
Source text: The determination technique of Rb^+ efflux by AAS is safer and faster in high-throughput screening of potassium channel regulators, and has the characteristics of directly reflecting the activity of ion channels and the regulatory role of regulators. Rb has a similar atomic size to K, and the potassium channel is permeable to Rb^+, the opening or closing of the potassium channel can be determined by measuring the concentration of Rb^+ efflux. Rb has a specific atomic absorption at 780 nm and the Rb^+ concentration can be measured by AAS. Therefore, AAS can be used to screen potassium channel openers or shutters by the high-throughput determination technique for measuring Rb^+ efflux.
Chinese hamster ovary (CHO) cells with stable KCNQ2/3 channels in logarithmic growth phase are inoculated on a 96-well plate at a density of 2×10^4 cells/well. Three wells are provided for each concentration. Solvent control wells having the corresponding concentrations are arranged. After adherent growth overnight, the culture medium is discarded, and 200 μl of a loading buffer containing RbCL is added, and culturing is performed at 37° C. and under 5% CO2 for 3 h. The loading buffer is then discarded and washing is performed 3 times with a wash buffer. To screen the channel opener, the compound to be tested is diluted in a depolarizing buffer and 200 μl of the above solution is added into the cells and reacted for 10 min. After incubation for 10 min, 200 μl of a supernatant is carefully transferred into another 96-well plate. Rb^+ atomic absorption at 780 nm is determined by an ICR8000 atomic absorption spectrometer. The relative efflux is calculated according to the formula Fsupern=(Rb_supern/cpd/Rb_supern/d)*100.

[2] = target: KCNQ2/3 (Kv7.2/7.3) (Homo sapiens, UniProt O43525+O43526); assay: Electrophysiological patch clamp determination, KCNQ2/3; format: cell-based; details: whole-cell patch clamp, CHO cells; read-out: EC50 value, activation of KCNQ2/3 (Kv7.2/7.3)
Method: (§1) CHO cells culture: CHO cells with stable KCNQ channels are cultured in a DMEM culture solution containing 10% fetal bovine serum, 100 U/ml penicillin and streptomycin, and then digested and passaged by pancreatin. The cells are placed on a 12 mm round cover glass and cultured in a 24-well plate.
(§2) Cell membrane current record by patch clamp technique: HEKA-EPC10 is used as a patch clamp amplifier. Amphotericin B (final concentration of 0.1-0.2 mg/ml) is used in the electrode to record the perforation patch clamp. After polishing, the microelectrode is filled with an electrode inner fluid, and the resistance value is controlled to be 2-4 MΩ. The electrode inner fluid used for recording CHO cells is (mM): KCl 160, HEPES 5, MgCl2 3, CaCl2 1 and EGTA 3, and the pH is adjusted to 7.4 with KOH. The components of the extracellular fluid are (mM): NaCl 160, KCl 2.5, HEPES 10, glucose 8, MgCl2 1 and CaCl2 5. After forming a giant resistance seal between the microelectrode and the cell membrane, the current is recorded under voltage clamping.

[3] = target: KCNQ4 (Kv7.4) (Homo sapiens, UniProt P56696); assay: Electrophysiological patch clamp determination, KCNQ4; format: cell-based; details: CHO cells
Method: as §1, §2

[4] = tested on: Kunming mice; assay: Maximum electroshock seizure (MES) experimental model; format: in vivo
Method: Methods: Kunming mice, male, 18-22 g, are placed in the experimental environment 3 days before the experiment to make them adapt to the environment, eat and drink freely; the room temperature is 23-25° C.
The experimental instrument is YLS-9A physiological and pharmacological electronic stimulator: continuous wave output; wave width of 20 ms; gap of 10 ms; wave number of 70; voltage of 60 V; current limit of 3.5 mA.
Methods: 24 hours before the formal experiment, the mice are screened, the stimulator is set according to the above parameters, the mouse ears are clamped with crocodile clip of the stimulator, and the stimulation is started. The ankylosis of the hind limbs of the mice is taken as a positive index to screen the qualified (positive) mice and eliminate the substandard mice. In the formal experiment, the grouping is randomly performed with 10 mice in each group according to the experimental scheme, and the electrical stimulation is carried out. If no ankylosis is found in the hind limbs, it is effective (positive).

[5] = tested on: KM mice; assay: Pentylenetetrazole (PTZ)-induced epilepsy model; format: in vivo; details: PTZ 85 mg/kg s.c.
Method: Experimental conditions: room temperature 25±1° C.
Experimental animals: KM mice, half male and half female, weighing 18-25 g, 10-12 mice in each group, adapt to the environment for 3 days and eat and drink freely.
Methods: the day before the experiment, each animal is labeled to ensure that the determination time of each animal after administration is consistent. The experimental animals fast for more than 8 h the night before the experiment. […] After the drugs are absorbed, the model is made by the subcutaneous administration of 85 mg/kg PTZ (administration volume of 0.1 ml/10 g) body weight to the neck and back. After PTZ administration, time is counted and the model is put into the transparent observation box in time to keep the environment quiet. The seizure threshold and the number of non-seizure animals are recorded. […] The seizure threshold and the rate of non-death mice (i.e. protective rate) within 12 h after constructing the mold are compared.

[6] = Rb+ efflux by AAS, CHO cells with stable KCNQ2/3 channels, read-out: KCNQ2/3 EC50
[7] = intraperitoneal 1 mg/kg body weight

Sequence of KCNQ2/3 channels (O43525 whole entry): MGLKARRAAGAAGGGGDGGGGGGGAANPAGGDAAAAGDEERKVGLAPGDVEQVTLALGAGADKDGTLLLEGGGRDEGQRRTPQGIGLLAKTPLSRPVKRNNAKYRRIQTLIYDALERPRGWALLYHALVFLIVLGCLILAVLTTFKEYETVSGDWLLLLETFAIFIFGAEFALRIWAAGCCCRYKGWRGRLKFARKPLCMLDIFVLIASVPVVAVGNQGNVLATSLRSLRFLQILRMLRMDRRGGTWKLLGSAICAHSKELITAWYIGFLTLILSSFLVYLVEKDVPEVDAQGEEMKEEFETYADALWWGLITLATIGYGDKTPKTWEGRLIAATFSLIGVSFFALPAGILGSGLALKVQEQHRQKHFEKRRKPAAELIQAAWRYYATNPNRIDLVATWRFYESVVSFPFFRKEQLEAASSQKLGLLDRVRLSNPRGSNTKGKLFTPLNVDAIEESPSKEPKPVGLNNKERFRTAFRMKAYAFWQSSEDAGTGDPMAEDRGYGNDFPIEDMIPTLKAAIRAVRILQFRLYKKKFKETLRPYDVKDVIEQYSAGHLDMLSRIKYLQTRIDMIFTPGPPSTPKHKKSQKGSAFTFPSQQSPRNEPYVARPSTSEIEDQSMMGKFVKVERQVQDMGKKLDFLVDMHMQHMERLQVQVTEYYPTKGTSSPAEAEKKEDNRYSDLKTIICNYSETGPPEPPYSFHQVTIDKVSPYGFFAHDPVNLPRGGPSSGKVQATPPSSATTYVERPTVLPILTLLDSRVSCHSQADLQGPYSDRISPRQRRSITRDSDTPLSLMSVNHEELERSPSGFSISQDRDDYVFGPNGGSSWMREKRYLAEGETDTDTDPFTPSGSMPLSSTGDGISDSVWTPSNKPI
Sequence of KCNQ2/3 channels (O43526 whole entry): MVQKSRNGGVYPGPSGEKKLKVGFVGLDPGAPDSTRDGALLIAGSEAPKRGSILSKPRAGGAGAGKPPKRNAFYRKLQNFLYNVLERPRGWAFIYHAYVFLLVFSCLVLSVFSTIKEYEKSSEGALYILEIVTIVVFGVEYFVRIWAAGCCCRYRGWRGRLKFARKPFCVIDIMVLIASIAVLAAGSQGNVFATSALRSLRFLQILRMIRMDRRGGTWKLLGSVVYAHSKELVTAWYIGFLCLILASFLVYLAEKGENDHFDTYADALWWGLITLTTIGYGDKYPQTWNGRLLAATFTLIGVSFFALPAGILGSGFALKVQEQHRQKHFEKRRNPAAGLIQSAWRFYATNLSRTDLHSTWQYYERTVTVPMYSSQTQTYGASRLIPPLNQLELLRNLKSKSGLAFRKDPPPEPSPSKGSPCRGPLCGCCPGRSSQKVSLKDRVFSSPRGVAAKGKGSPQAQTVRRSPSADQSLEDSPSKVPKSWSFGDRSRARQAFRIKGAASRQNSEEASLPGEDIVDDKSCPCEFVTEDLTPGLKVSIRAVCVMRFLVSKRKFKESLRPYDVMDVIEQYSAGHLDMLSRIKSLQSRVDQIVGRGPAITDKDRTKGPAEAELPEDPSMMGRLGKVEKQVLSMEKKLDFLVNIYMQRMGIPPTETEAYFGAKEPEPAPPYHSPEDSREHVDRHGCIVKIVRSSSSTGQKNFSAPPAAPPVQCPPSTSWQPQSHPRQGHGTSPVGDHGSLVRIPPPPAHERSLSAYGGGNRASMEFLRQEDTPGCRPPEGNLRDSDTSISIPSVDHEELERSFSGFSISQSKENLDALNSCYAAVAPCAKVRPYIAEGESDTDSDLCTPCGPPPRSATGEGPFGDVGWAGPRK

Structure (SMILES) | EC50 [1, 6] [nM] | melting point [°C] | also measured
Nc1c(NC(=O)CCC2CCCC2)ccc(NCc2ccc(C(F)(F)F)cc2)c1F [Compound 1, N-(2-amino-3-fluoro-4-(4-trifluoromethylbenzylamino)-phenyl)-cyclopentyl propionamide] | 150 ± 40 | – | EC50 [2]: 380 ± 100 nM; opening activity to KCNQ4 (Kv7.4) [3]: relatively small; effective rate (no ankylosis of hind limbs) [4, 7]: 100%; protective rate (non-death mice within 12 h) ([5]; 3 mg/kg body weight i.p.): 100%; seizure threshold ([5]; 3 mg/kg body weight i.p.): 867.21 ± 152.51 s; protective rate (non-death mice within 12 h) ([5]; 5 mg/kg body weight i.p.): 100%; seizure threshold ([5]; 5 mg/kg body weight i.p.): 1185.96 ± 134.28 s
CC(C)(C)CC(=O)Nc1ccc(NCc2ccc(C(F)(F)F)cc2)c(F)c1N [Compound 2, N-(2-amino-3-fluoro-4-(4-trifluoromethylbenzylamino)-phenyl)-3,3-dimethyl Butyramide] | 210 ± 80 | – | effective rate (no ankylosis of hind limbs) [4, 7]: 90%
Nc1c(NC(=O)C2CCCC2)ccc(NCc2ccc(C(F)(F)F)cc2)c1F [Compound 3, N-(2-amino-3-fluoro-4-(4-trifluoromethylbenzylamino)-phenyl)-cyclopentyl Formamide] | 2830 ± 210 | 222.9 to 223.5 | –
Nc1c(NC(=O)CC2CCCC2)ccc(NCc2ccc(C(F)(F)F)cc2)c1F [Compound 4, N-(2-amino-3-fluoro-4-(4-trifluoromethylbenzylamino)-phenyl)-cyclopentyl Acetamide] | 580 ± 130 | 196.9 to 197.5 | –
Nc1c(NC(=O)CCN2CCCCC2)ccc(NCc2ccc(C(F)(F)F)cc2)c1F [Compound 5, N-(2-amino-3-fluoro-4-(4-trifluoromethylbenzylamino)-phenyl)-3-piperidinyl-1-propionamide] | 750 ± 120 | 202.1 to 203.5 | –
Nc1c(NC(=O)CCc2ccco2)ccc(NCc2ccc(C(F)(F)F)cc2)c1F [Compound 6, N-(2-amino-3-fluoro-4-(4-trifluoromethylbenzylamino)-phenyl)-3-furanyl-2-propanamide] | 3580 ± 730 | 212.2 to 213.5 | –
Nc1c(NC(=O)CCCc2ccccc2)ccc(NCc2ccc(C(F)(F)F)cc2)c1F [Compound 7] | 5260 ± 820 | 198.5 to 199.5 | –
CCOC(=O)Nc1ccc(NCc2ccc(F)cc2)cc1N [RTG, Retigabine, reference compound] | – | – | EC50 [1]: 860 ± 180 nM; effective rate (no ankylosis of hind limbs) ([4]; intraperitoneal 10 mg/kg body weight): 80%; protective rate (non-death mice within 12 h) ([5]; 15 mg/kg body weight i.p.): 50%; seizure threshold ([5]; 15 mg/kg body weight i.p.): 858.17 ± 528.48 s
